Here are results for nine compounds from patent US9062027B2, “Carboxamide compounds and their use as calpain inhibitors V” (AbbVie Deutschland GmbH & Co. KG, priority 2010, dated 2015).

In one data set the target is T1, calpain-I (Homo sapiens, UniProt P07384).
T1 construct: calpain-I—isolated from human erythrocytes; purchased Calbiochem 208713; host or cells: human erythrocytes (native tissue isolate)
T1 sequence (P07384 1-714): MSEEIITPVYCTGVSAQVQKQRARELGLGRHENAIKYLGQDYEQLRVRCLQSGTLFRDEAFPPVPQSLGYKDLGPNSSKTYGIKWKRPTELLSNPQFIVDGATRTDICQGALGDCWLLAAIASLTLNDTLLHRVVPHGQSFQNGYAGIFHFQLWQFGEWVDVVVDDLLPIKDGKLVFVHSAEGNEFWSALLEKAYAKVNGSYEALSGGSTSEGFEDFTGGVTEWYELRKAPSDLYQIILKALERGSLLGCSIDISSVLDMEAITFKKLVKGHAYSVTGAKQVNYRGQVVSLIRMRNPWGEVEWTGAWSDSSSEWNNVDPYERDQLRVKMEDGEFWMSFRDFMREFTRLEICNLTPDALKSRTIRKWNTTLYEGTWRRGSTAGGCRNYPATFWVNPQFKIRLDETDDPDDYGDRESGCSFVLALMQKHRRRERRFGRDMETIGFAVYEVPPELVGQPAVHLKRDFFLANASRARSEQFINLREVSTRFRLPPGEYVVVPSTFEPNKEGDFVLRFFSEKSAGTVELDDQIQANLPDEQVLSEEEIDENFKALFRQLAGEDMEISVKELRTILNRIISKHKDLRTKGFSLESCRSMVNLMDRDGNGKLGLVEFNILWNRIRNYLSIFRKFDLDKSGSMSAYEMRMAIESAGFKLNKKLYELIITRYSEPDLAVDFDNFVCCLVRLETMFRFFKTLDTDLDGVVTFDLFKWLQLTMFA
T1 sequence (P04632 1-268 partner): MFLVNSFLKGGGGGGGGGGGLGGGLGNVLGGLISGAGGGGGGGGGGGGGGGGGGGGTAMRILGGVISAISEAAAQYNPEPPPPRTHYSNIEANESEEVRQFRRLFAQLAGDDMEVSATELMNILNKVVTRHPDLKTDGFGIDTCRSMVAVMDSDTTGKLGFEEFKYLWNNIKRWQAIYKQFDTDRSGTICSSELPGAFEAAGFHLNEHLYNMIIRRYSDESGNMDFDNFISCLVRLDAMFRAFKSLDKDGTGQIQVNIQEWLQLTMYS
The experiment in a line: Calpain I enzyme inhibition in vitro (kinetic fluorescence assay). The settings on record: apparent Ki from IC50 by Cheng-Prussoff; calpain-I from human erythrocytes, pH 7.3. Format: biochemical. On the procedure: Testing for blockade of the corresponding enzymic activities was carried out by means of kinetic fluorescence assays (excitation 390 nm, emission 460 nm).
Apparent Ki values were calculated from the experimentally determined IC50 values by the Cheng-Prussoff relation assuming a reversible competitive enzyme inhibition.
20 nM calpain-I—isolated from human erythrocytes (Calbiochem #208713), 100 μM Suc-Leu-Tyr-AMC (Bachem #I-1355) as substrate in buffer with 62 mM imidazole, 0.3 mM CaCl2, 0.10% CHAPS, 0.05% BSA, 1 mM DTT at pH 7.3 and room temperature.
`O=C(NC1CC1)C(=O)C(Cc1ccccc1)NC(=O)c1cccnc1-n1cc2ccccc2n1` (stereo not drawn) [Example 1, N-[4-(Cyclopropylamino)-3,4-dioxo-1-phenylbutan-2-yl]-2-(2H-indazol-2-yl)nicotinamide]: the Ki was in the range of 400 to 800 nM.

On to `CCNC(=O)C(=O)C(Cc1ccccc1)NC(=O)c1cccnc1-n1cc2ccccc2n1` (stereo not drawn) [Example 2, N-[4-(Ethylamino)-3,4-dioxo-1-phenyl-2-butanyl]-2-(2H-indazol-2-yl)nicotinamide], for which the “Calpain activity (Ki(calpain))” value is reported as “∘”.

Regarding `CONC(=O)C(=O)C(Cc1ccccc1)NC(=O)c1cccnc1-n1cc2ccccc2n1` (stereo not drawn) [Example 3, 2-(2H-Indazol-2-yl)-N-[4-(methoxyamino)-3,4-dioxo-1-phenyl-2-butanyl]nicotinamide], the Ki is less than 250 nM.

Take `CCONC(=O)C(=O)C(Cc1ccccc1)NC(=O)c1cccnc1-n1cc2ccccc2n1` (stereo not drawn) [Example 4, N-[4-(Ethoxyamino)-3,4-dioxo-1-phenyl-2-butanyl]-2-(2H-indazol-2-yl)nicotinamide]: the Ki was less than 250 nM.

In the case of `O=C(NC1CC1)C(=O)C(Cc1ccccc1)NC(=O)c1cccnc1-n1cc2c(n1)CCCC2` (stereo not drawn) [Example 5, N-[4-(Cyclopropylamino)-3,4-dioxo-1-phenyl-2-butanyl]-2-(4,5,6,7-tetrahydro-2H-indazol-2-yl)nicotinamide], the Ki lay in the range of 400 to 800 nM.

As to `CONC(=O)C(=O)C(Cc1ccccc1)NC(=O)c1cccnc1-n1cc2cc(F)ccc2n1` (stereo not drawn) [Example 7, 2-(5-Fluoro-2H-indazol-2-yl)-N-[4-(methoxyamino)-3,4-dioxo-1-phenyl-2-butanyl]-3-pyridinecarboxamide], the Ki was less than 250 nM.

For the compound `CONC(=O)C(=O)C(Cc1ccccc1)NC(=O)c1cccnc1-n1cc2ccc(F)cc2n1` (stereo not drawn) [Example 8, 2-(6-Fluoro-2H-indazol-2-yl)-N-[4-(methoxyamino)-3,4-dioxo-1-phenyl-2-butanyl]-3-pyridinecarboxamide], the Ki fell in the range of 250 to 400 nM.

For the compound `CONC(=O)C(=O)C(Cc1ccccc1)NC(=O)c1cccnc1-n1cc2ccc(C(F)(F)F)cc2n1` (stereo not drawn) [Example 9, N-[4-(Methoxyamino)-3,4-dioxo-1-phenyl-2-butanyl]-2-[6-(trifluoromethyl)-2H-indazol-2-yl]-3-pyridinecarboxamide], the Ki was less than 250 nM.

Test system in the next data set: not listed separately
The experiment in a line: In-vivo pharmacokinetics and metabolite to parent ratio in plasma of cynomolgus monkeys. The settings on record: cynomolgus monkey, female cynomolgus monkeys, 3 mg/kg oral versus 1 mg/kg intravenous.
Method: The tested compounds were prepared as a solution for either intravenous or oral administration to groups of female cynomolgus monkeys. For intravenous dosing, the compounds were prepared in a 10% DMSO/PEG-400 vehicle at a concentration of 2 mg/ml. For oral dosing, the compounds were prepared in a lipid based vehicle at a concentration of 3 mg/ml. Groups of three monkeys received either a 1 mg/kg (0.5 ml/kg) intravenous dose or a 3 mg/kg (1 ml/kg) oral dose. The intravenous dose was administered as a slow bolus in a saphenous vein; the oral dose was administered by gastric intubation and was followed by ˜5 ml water. […] The samples were reconstituted with an aliquot of mobile phase, followed by quantification by HPLC-MS/MS. Standard curves for both parent and the selected metabolites were prepared from authentic standards in blank monkey plasma; standards were analyzed simultaneously with the samples. The plasma concentration of each sample was calculated by least squares linear regression analysis of the peak area ratio (parent or metabolite/internal standard) of the spiked plasma standards versus concentration.
Peak plasma concentrations (Cmax) and the time to peak plasma concentration (Tmax) were read directly from the plasma concentration data for each monkey. […] The apparent total plasma clearance (CLp) was calculated by dividing the administered dose by the AUC0-inf. […]
Consider `NC(=O)C(=O)C(Cc1ccccc1)NC(=O)c1cccnc1-n1cc2ccccc2n1` (stereo not drawn) [comp. ex., N-(3-Amino-1-benzyl-2,3-dioxopropyl)-2-(2H-indazol-2-yl)nicotinamide], for which the bioavailability worked out at 3%.

As usually defined, the bioavailability is the share of a dose that reaches the circulation, judged against a reference dose that is usually intravenous.
